Test results published in patent US11419833B2, “Nasally administered pharmaceutical composition for the treatment of epilepsy and related disorders” (priority 2020, dated 2022).
“Also recorded” adds a separate entry of the source.

Assays:
Solubility in water = assay type: physicochemical
PTZ-induced seizures = test: Acute subcutaneous PTZ-induced seizure test; assay type: in vivo, mice
Protocol: Anticonvulsant effects of the test compounds were evaluated using subcutaneous PTZ-induced seizure test (subcutaneous PTZ). […] The Z-acid and its analogs were administered intraperitoneally at least 30 min before subcutaneous administration of convulsive dose of PTZ (110 mg/kg). […] Latency to PTZ-induced threshold seizures was also calculated. The latency to threshold seizure is defined as the interval between the time of the PTZ-injection and the occurrence of first episode of threshold seizure. Protection of testing material against PTZ-induced mortality within 24 hours was also evaluated. […] NMRI male mice weighing between 18-22 g were selected for the study. PTZ 110 mg/Kg was administered to the PTZ group and observed the first myoclonic jerk and HLTE.

PTZ-induced kindling = test: scPTZ-induced chemical kindling model of epileptogenesis; assay type: in vivo, NMRI mice
Protocol: The chemical kindling was induced according to the modified method of De Sarro i.e. by repeated treatment of mice with sub-convulsive dose of pentylenetetrazole (subcutaneous, 50 mg/kg) on alternate days. Four doses of Z-acid (150 mg/kg/day, 200 mg/kg/day, 250 mg/kg/day, and 300 mg/kg/day) were administered daily (intraperitoneal). However, on the day of PTZ administration, animals were treated with the Z-acid 30 minutes before administering PTZ. After PTZ was injected, each animal was placed separately in a clear plexiglass cage for close observations for 1 hour. The drug control groups received daily valproic acid. The Racine scoring categorization of epileptic seizures pattern was used to monitor the animals (Table 1). The animals showing score 4-5 were considered to be fully kindled. The cumulative kindling score was then calculated. Experiments were terminated once the animals were fully kindled. At the end of each experiment, animals were humanely sacrificed.

[1] = Sub-chronic toxicity profile, intraperitoneal, 3 months; assay type: in vivo
Protocol: To evaluate the sub-chronic toxicity profile of Z-acid the compound was administered daily into mice at the dose of 300 mg/kg (intraperitoneal) for a period of 3 months. The animals were divided into […] (8 per group) as outlined below: • Group I normal control; • Group II treated daily for 1 week; • Group III treated daily for 2 weeks; • Group IV treated daily for 1 month; • Group V treated daily for 2 months; • Group VI treated daily for 3 months
At the end of the study, animals were anaesthetized, dissected and gross examination of vital organs were performed, along with serum and whole brain samples collection. Serum and brain sample were stored in −20° C. for further examination.

[2] = Pharmacokinetics in plasma and brain after single intraperitoneal dose (GC/MS); assay type: in vivo; details: mice, 300 mg/kg intraperitoneal
Protocol: The pharmacokinetics of Z-acid in both plasma and brain after a single intraperitoneal dose of Z-acid (300 mg/kg) was studied in mice. Animals were sacrificed at 5 min, 15 min, 30 min, 60 min, 120 min, 180 min, and 240 min after the dose administration (n=4 for each time point). Blood samples were obtained in heparin containing vacutainers. The control group consists of the animals receiving no other treatment and this serve as blank plasma and aided in optimization and validation of the GC/MS method. The blood samples were later centrifuged to obtain plasma which was stored at −20° C. for further processing. Likewise, the brain samples were also collected from the sacrificed animals and stored at −20° C. for further processing on GC-MS.

[3] = tested on: PTZ-induced epileptiform activity; test: PTZ-induced epileptiform activity, intraperitoneal administration (EEG protocol); assay type: in vivo, rats; details: for spike discharge: Z-acid 150 mg/kg i.p. or diazepam 5 mg/kg, 10 min after PTZ 100 mg/kg, vs PTZ-injected animals, P<0.01
Protocol: In this set of experiment, effect of Z-acid was investigated on PTZ-induced epileptiform activity. Rats (210±10 g) were divided into six groups as control, diazepam, Z-acid, PTZ, PTZ+diazepam, PTZ+Z-acid with 6 sample size in each group. PTZ was injected at the dose of 100 mg/kg. Z-acid was intraperitoneally injected in anesthetized rats at the dose of 150 mg/kg whereas drug control group was treated with 5 mg/kg dose of diazepam. Saline was used as placebo. PTZ was prepared in saline whereas Z-acid was dissolved in 0.1 N NaOH. EEG was recorded from cortical region of the rat brain.
The protocol was started by anesthetizing rat followed by fixing the animal in stereotaxic apparatus for surgery. The skin was removed to expose the bregma and lambda region of the skull. Three holes of 0.6 mm diameter were drilled with the help of a manual drill. One hole was made on the parietal lobe for the placement of active electrode whereas two were made on the occipital lobes for reference and ground electrodes. A screw with the length of 5 mm and diameter of 0.5 mm was inserted on each hole and electrodes were then connected with the EEG recording system. The recording was started by monitoring the baseline EEG recording for 5 min. After 5 min of noise-free recording, PTZ was injected to induce acute seizures. The EEG recording after the injection of PTZ was continued for 10 min to observe the induction of epileptiform activity. […] After 10 min of recording, Z-acid was injected intraperitoneally to observe its effects on PTZ-induced epileptiform activity.

BDNF = BDNF gene expression (qRT-PCR) in PTZ-induced acute seizure; assay type: in vivo, rats; details: cortex and hippocampus, p<0.01
Source text: (§1) Rats were decapitated after recording the EEG to collect the brain samples. Cortex and hippocampus regions of brain were excised out to conduct analysis of gene expression using qRT-PCR. The tissue samples were processed for RNA isolation followed by synthesis of cDNA using Revert Aid First strand cDNA synthesis kit (Thermo Scientific). The template cDNA were then used for the amplification of BDNF and Cfos using SYBER green qPCR Master mix (Thermo Scientific). The relative gene expression was determined by comparing 2-ΔΔCt values normalized to β-actin.

Cfos = Cfos gene expression (qRT-PCR) in PTZ-induced acute seizure; assay type: in vivo, rats; details: cortex and hippocampus, p<0.01
Source text: as §1

glutamate levels = test: Glutamate levels (ELISA) in PTZ-induced acute seizure; assay type: in vivo, rats; details: cortex and hippocampus, p<0.01
Source text: Glutamate levels were also estimated in cortex and hippocampus following the administration of Z-acid formulation I. The glutamate levels were estimated using ELISA kit method (Bioassay Technology Laboratory, E1474Ra).

Stability = assay type: physicochemical
[4] = 300, 400 and 500 mg/Kg intraperitoneal, 30 min before PTZ 110 mg/Kg, compared to PTZ group
[5] = 150 mg/kg intraperitoneal, 10 min after PTZ
[6] = intranasal pre-treatment (Formulation I), vs PTZ
[7] = intraperitoneal experiment, vs PTZ alone

## CC1=CC(=CC(=O)O)CC(C)(C)C1 (single isomer, unassigned) [E/Z isomeric mixture, (E/Z)-2,2′-(3,5,5-trimethyl-2-cyclohexen-1-ylidene) acetic acid]
Solubility in water
  solubility in water: poorly soluble

## CC1=C/C(=C\C(=O)O)CC(C)(C)C1 [Z-acid, (Z)-2-(3,5,5-trimethyl-2-cyclohexen-1-ylidene) acetic acid]
PTZ-induced seizures; [4]
  HLTE: prevented HLTE in all the animals
  onset of myoclonic seizure: significantly delayed
PTZ-induced seizures; 300, 400 and 500 mg/Kg, compared to PTZ group (FIG. 1)
  seizure scoring: decreased the number seizure scoring significantly and dose dependently
PTZ-induced kindling; 300 mg/kg daily intraperitoneal, PTZ 50 mg/kg on alternate days
  development of kindling induced by scPTZ administration: complete inhibition
PTZ-induced kindling; daily intraperitoneal, doses tested 150-300 mg/kg/day
  active dose able to inhibit the process of epileptogenesis: 300 mg/kg body weight
[1]; 300 mg/kg daily intraperitoneal, 3 months
  signs of toxicity, gross anatomy of organs: did not find any sign of toxicity; also recorded: no signs of toxicity
[1]; blood samples after 3 months daily dosing 300 mg/kg
  LFT profile, CBC and LDH, creatinine, and urea levels: normal range
[2]; brain
  persistence or sequestration in brain: No evidence
  time to disappearance from brain: ≤ 1 h
  time to peak concentration in brain: ≤ 15 min
[2]; plasma
  apparent volume of distribution: 10 L
  time to disappearance from plasma: 2 to 2.5 h
  time to peak concentration in plasma: ≤ 5 min
[2]; mouse, ip, plasma
  half-life: 1 h
[3]; [5]
  time after administration at which PTZ-induced spikes were significantly reduced: 5 min
  time after treatment at which PTZ-induced spikes completely diminished: 7 to 10 min
[3]
  spike discharge: significantly reduced
BDNF; i.p. treatment, vs PTZ alone
  BDNF gene expression: significantly reduced
BDNF; [6]
  BDNF gene expression: significantly reduced
Cfos; i.p. treatment, vs PTZ alone
  Cfos gene expression: significantly reduced
Cfos; [6]
  Cfos gene expression: significantly reduced
Glutamate levels; intranasal experiment (Formulation I), vs PTZ
  glutamate levels: significantly reduced
Glutamate levels; [7]
  glutamate levels: significantly reduced
Stability
  stability under all conditions used in various experiments: stable
Stability; room temperature and high temperature
  stability in different organic solvents: stable

## CN1C(=O)CN=C(c2ccccc2)c2cc(Cl)ccc21 [diazepam, reference compound]
[3]
  spike discharge: significantly reduced
BDNF; i.p. treatment, vs PTZ alone
  BDNF gene expression: significantly reduced
Cfos; i.p. treatment, vs PTZ alone
  Cfos gene expression: significantly reduced
Glutamate levels; [7]
  glutamate levels: significantly reduced

## CCCC(CCC)C(=O)O [valproic acid, reference compound]
PTZ-induced kindling; drug control, daily, compared to PTZ-kindled control group
  seizure pattern till the end of the kindling protocol: did not exhibit any seizure pattern
